The source of these data is patent US10358436B2, “Kinase inhibitors and method of treating cancer” (University Health Network, priority 2010, dated 2019).

The structures appear in SMILES notation. Like-named read-outs stand apart in the source and are kept apart here.

Common to all, as to assay type: biochemical
Test [1] addresses human PLK4 (Homo sapiens (Human), UniProt O00444). The experiment in a line: PLK4 inhibition assay (indirect ELISA). In general terms: In an ELISA, binding on a coated surface is turned into a signal by an enzyme label.
Method: PLK4 activity was measured using an indirect ELISA detection system. […] The colourimetric reaction was allowed to continue for 5 minutes, followed by addition of stop solution (0.5 N sulphuric acid), and quantified by detection at 450 nm with either a monochromatic or filter based plate reader (Molecular Devices M5 or Beckman DTX880, respectively).
Compounds were pre-incubated in the presence of enzyme for 15 minutes prior to addition of ATP and the activity remaining quantified using the above described activity assay. […] The IC50 value was determined using a non-linear 4 point logistic curve fit (XLfit4, IDBS) with the formula; (A+(B/(1+((x/C)^D)))), where A=background value, B=range, C=inflection point, D=curve fit parameter.
Test [2] concerns the target Aurora A (Homo sapiens (Human), UniProt O14965). The experiment in a line: Aurora A inhibition assay (Z-Lyte).
The target in test [3] is Aurora B (Homo sapiens (Human), UniProt Q96GD4). The experiment in a line: Aurora B inhibition assay (Z-Lyte).
Chain of Aurora B (Q96GD4 whole entry): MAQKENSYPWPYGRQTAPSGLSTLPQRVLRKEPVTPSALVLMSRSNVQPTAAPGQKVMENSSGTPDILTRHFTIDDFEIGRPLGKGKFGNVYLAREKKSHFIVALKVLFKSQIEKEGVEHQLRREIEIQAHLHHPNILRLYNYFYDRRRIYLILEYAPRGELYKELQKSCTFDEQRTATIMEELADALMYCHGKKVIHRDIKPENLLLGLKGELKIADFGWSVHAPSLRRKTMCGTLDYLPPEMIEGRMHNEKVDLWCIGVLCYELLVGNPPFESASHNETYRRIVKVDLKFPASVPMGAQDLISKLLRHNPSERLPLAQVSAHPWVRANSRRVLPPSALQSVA
Method: Aurora B inhibition was determined using the Z-Lyte assay kit from Invitrogen. […] The % inhibition values were determined according to the manufacturer's directions and IC50 values were obtained using a non-linear 4 point logistic curve fit (XLfit4, IDBS)

Chain of human PLK4 (O00444 1-391): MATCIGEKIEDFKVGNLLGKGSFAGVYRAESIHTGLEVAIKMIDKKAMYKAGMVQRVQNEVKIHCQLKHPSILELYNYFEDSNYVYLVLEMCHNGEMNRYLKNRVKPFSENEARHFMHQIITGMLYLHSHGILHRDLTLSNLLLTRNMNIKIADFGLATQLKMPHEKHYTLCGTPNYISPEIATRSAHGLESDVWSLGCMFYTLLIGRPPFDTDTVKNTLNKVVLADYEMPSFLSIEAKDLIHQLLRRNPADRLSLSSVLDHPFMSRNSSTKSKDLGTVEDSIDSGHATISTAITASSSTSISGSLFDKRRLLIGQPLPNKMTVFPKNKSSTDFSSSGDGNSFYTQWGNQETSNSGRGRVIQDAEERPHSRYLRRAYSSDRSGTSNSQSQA
Chain of Aurora A (O14965 whole entry): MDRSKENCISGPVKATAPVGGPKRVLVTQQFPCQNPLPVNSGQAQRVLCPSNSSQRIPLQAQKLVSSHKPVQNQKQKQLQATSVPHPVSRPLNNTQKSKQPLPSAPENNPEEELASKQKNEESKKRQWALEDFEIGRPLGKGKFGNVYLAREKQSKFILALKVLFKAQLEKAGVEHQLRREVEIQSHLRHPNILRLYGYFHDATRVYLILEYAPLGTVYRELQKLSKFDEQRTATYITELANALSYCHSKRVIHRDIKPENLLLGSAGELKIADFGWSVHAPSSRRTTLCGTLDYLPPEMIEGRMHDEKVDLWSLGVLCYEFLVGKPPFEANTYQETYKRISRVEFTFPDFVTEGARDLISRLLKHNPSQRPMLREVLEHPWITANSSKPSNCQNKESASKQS

Regarding `COc1ccc2c(c1)[C@]1(C[C@H]1c1ccc3c(-c4ccc(N5CCNCC5)nc4)n[nH]c3c1)C(=O)N2` (relative stereo) [Example A21, 4-(5-(6-((1R*,2S*)-5′-Methoxy-2′-oxospiro[cyclopropane-1,3′-indoline]-2-yl)-1H-indazol-3-yl)pyridinium-2-yl)piperazine bis(2,2,2-trifluoroacetate)], the concentration for half-maximal inhibition (IC50) in test [1] (read-out: PLK4 IC50 Ranges) and in test [3] (read-out: Aurora B IC50 Ranges) was less than 100 nM throughout. This compound also had an inhibition at 1 µM in test [2] of less than 50%.

Regarding `COc1ccc2c(c1)[C@]1(C[C@H]1c1ccc3c(-c4ccc(N5CCN(C)CC5)nc4)n[nH]c3c1)C(=O)N2C` (relative stereo) [Example A104, (1R*,2S*)-5′-methoxy-1′-methyl-2-(3-(6-(4-methylpiperazin-1-yl)pyridin-3-yl)-1H-indazol-6-yl)spiro[cyclopropane-1,3′-indolin]-2′-one bis(2,2,2-trifluoroacetate)], the IC50 in test [1] (read-out: PLK4 IC50 Ranges) and in test [3] (read-out: Aurora B IC50 Ranges) was less than 100 nM each time. Further, the inhibition at 1 µM in test [2] was less than 50%.

As to `CN1CCN(c2ccc(-c3n[nH]c4cc([C@@H]5C[C@@]56C(=O)N(C)c5ccccc56)ccc34)cn2)CC1` (relative stereo) [Example A93, (1R*,2S*)-1′-methyl-2-(3-(6-(4-methylpiperazin-1-yl)pyridin-3-yl)-1H-indazol-6-yl)spiro[cyclopropane-1,3′-indolin]-2′-one bis(2,2,2-trifluoroacetate)], the IC50 in test [1] (read-out: PLK4 IC50 Ranges) and in test [3] (read-out: Aurora B IC50 Ranges) was less than 100 nM throughout. In addition, in test [2], the inhibition at 1 µM is more than 50%.

For the compound `CN1CCN(c2ccc(-c3n[nH]c4cc([C@@H]5C[C@@]56C(=O)Nc5ccc(C(F)(F)F)cc56)ccc34)cc2)CC1` (relative stereo) [Example A170, (1R*,2S*)-2-(3-(4-(4-methylpiperazin-1-yl)phenyl)-1H-indazol-6-yl)-5′-(trifluoromethyl)spiro[cyclopropane-1,3′-indolin]-2′-one 2,2,2-trifluoroacetate], the IC50 in test [1] (read-out: PLK4 IC50 Ranges) was 100 to 1000 nM.

With `COc1ccc2c(c1)[C@]1(C[C@H]1c1ccc3c(-c4ccc(N5CCN(C)CC5)cc4)n[nH]c3c1)C(=O)N2C` (relative stereo) [Example A100, (1R*,2S*)-5′-methoxy-1′-methyl-2-(3-(4-(4-methylpiperazin-1-yl)phenyl)-1H-indazol-6-yl)spiro[cyclopropane-1,3′-indolin]-2′-one 2,2,2-trifluoroacetate], the IC50 in test [1] (read-out: PLK4 IC50 Ranges) and in test [3] (read-out: Aurora B IC50 Ranges) was less than 100 nM throughout. In test [2], this compound returned an inhibition at 1 µM of less than 50%.

On to `O=C1Nc2ccccc2[C@]12C[C@H]2c1ccc2c(/C=C/c3ccc(N4CCNCC4)cc3)n[nH]c2c1` (relative stereo) [Example A91, (1R*,2S*)-(E)-2-(3-(4-(piperazin-1-yl)styryl)-1H-indazol-6-yl)spiro[cyclopropane-1,3′-indolin]-2′-one 2,2,2-trifluoroacetate], for which the half-maximal inhibitory concentration (IC50) in test [1] and in test [3] (read-out: Aurora B IC50 Ranges) was less than 100 nM throughout. Also, the inhibition at 1 µM in test [2] is more than 50%.

For `Cc1cc(/C=C/c2n[nH]c3cc([C@@H]4C[C@@]45C(=O)Nc4ccccc45)ccc23)ccn1` (relative stereo) [Example A161, (1R*,2S*)-2-(3-((E)-2-(2-methylpyridin-4-yl)vinyl)-1H-indazol-6-yl)spiro[cyclopropane-1,3′-indolin]-2′-one], the concentration for half-maximal inhibition (IC50) in test [1] (read-out: PLK4 IC50 Ranges) and in test [3] (read-out: Aurora B IC50 Ranges) was less than 100 nM throughout. In test [2], the inhibition at 1 µM is more than 50%.

As to `COc1ccc2c(c1)[C@]1(C[C@H]1c1ccc3c(/C=C/c4ccc(N5CCNCC5)nc4)n[nH]c3c1)C(=O)N2` (relative stereo) [Example A163, (1R*,2S*)-5′-methoxy-2-(3-((E)-2-(6-(piperazin-1-yl)pyridin-3-yl)vinyl)-1H-indazol-6-yl)spiro[cyclopropane-1,3′-indolin]-2′-one 2,2,2-trifluoroacetate], the half-inhibitory concentration (IC50) in test [1] (read-out: PLK4 IC50 Ranges) and in test [3] (read-out: Aurora B IC50 Ranges) was less than 100 nM in each case. The inhibition at 1 µM in test [2] is more than 50%.

Turning to `CCc1ccc2c(c1)[C@]1(C[C@H]1c1ccc3c(-c4ccc(N5CCN(C)CC5)cc4)n[nH]c3c1)C(=O)N2` (relative stereo) [Example A142, (1R*,2S*)-5′-ethyl-2-(3-(4-(4-methylpiperazin-1-yl)phenyl)-1H-indazol-6-yl)spiro[cyclopropane-1,3′-indolin]-2′-one 2,2,2-trifluoroacetate], the IC50 in test [1] (read-out: PLK4 IC50 Ranges) and in test [3] (read-out: Aurora B IC50 Ranges) was less than 100 nM throughout.

With `CN(C)Cc1ccc(/C=C/c2n[nH]c3cc([C@@H]4C[C@@]45C(=O)Nc4ncccc45)ccc23)cc1` (relative stereo) [Example A172, (1R*,2S*)-(E)-2-(3-(4-((dimethylamino)methyl)styryl)-1H-indazol-6-yl)spiro[cyclopropane-1,3′-pyrrolo[2,3-b]pyridin]-2′(1′H)-one 2,2,2-trifluoroacetate], the IC50 in test [1] (read-out: PLK4 IC50 Ranges) and in test [3] (read-out: Aurora B IC50 Ranges) was less than 100 nM throughout.

`CN1CCN(c2ccc(-c3n[nH]c4cc([C@@H]5C[C@@]56C(=O)Nc5ccc(N)cc56)ccc34)cc2)CC1` (relative stereo) [Example A86, (1R*,2S*)-5′-amino-2-(3-(4-(4-methylpiperazin-1-yl)phenyl)-1H-indazol-6-yl)spiro[cyclopropane-1,3′-indolin]-2′-one]: the half-maximal inhibitory concentration (IC50) in test [1] (read-out: PLK4 IC50 Ranges) was less than 100 nM; in test [3] (read-out: Aurora B IC50 Ranges), 100 to 1000 nM. The compound also displayed an inhibition at 1 µM in test [2] of more than 50%.

Regarding `CN1CCN(c2ccc(/C=C/c3n[nH]c4cc([C@@H]5C[C@@]56C(=O)Nc5ccccc56)ccc34)cn2)CC1` (relative stereo) [Example A157, (1R*,2S*)-2-(3-((E)-2-(6-(4-methylpiperazin-1-yl)pyridin-3-yl)vinyl)-1H-indazol-6-yl)spiro[cyclopropane-1,3′-indolin]-2′-one bis-2,2,2-trifluoroacetate], in test [1] (read-out: PLK4 IC50 Ranges), the half-maximal inhibitory concentration (IC50) was less than 100 nM. Also, the inhibition at 1 µM in test [2] was more than 50%.

Turning to `COc1ccc2c(c1)[C@]1(C[C@H]1c1ccc3c(-c4cccc(CO)c4)n[nH]c3c1)C(=O)N2` (relative stereo) [Example A43, (1R*,2S*)-2-(3-(3-(hydroxymethyl)phenyl)-1H-indazol-6-yl)-5′-methoxy spiro[cyclopropane-1,3′-indolin]-2′-one 2,2,2-trifluoroacetate], the concentration for half-maximal inhibition (IC50) in test [1] (read-out: PLK4 IC50 Ranges) and in test [3] (read-out: Aurora B IC50 Ranges) was less than 100 nM in each case. In test [2], this compound had an inhibition at 1 µM of less than 50%.

`COc1ccc2c(c1)[C@]1(C[C@H]1c1ccc3c(-c4ccc(N5CCN(C)CC5)cc4)n[nH]c3c1)C(=O)N2` (relative stereo) [Example A38, (1R*,2S*)-5′-Methoxy-2-(3-(4-(4-methylpiperazin-1-yl)phenyl)-1H-indazol-6-yl)spiro[cyclopropane-1,3′-indolin]-2′-one]: the IC50 in test [1] and in test [3] (read-out: Aurora B IC50 Ranges) was less than 100 nM in each case. In test [2], this compound had an inhibition at 1 µM of less than 50%.

`COc1cc2c(cc1OC)[C@]1(C[C@H]1c1ccc3c(-c4cccc(CN5CCOCC5)c4)n[nH]c3c1)C(=O)N2` (relative stereo) [Example A143, (1R*,2S*)-5′,6′-dimethoxy-2-(3-(3-(morpholinomethyl)phenyl)-1H-indazol-6-yl)spiro[cyclopropane-1,3′-indolin]-2′-one 2,2,2-trifluoroacetate]: the half-maximal inhibitory concentration (IC50) in test [1] (read-out: PLK4 IC50 Ranges) is more than 1000 nM.

As for `COc1ccc2c(c1)[C@]1(C[C@H]1c1ccc3c(-c4ccnc(N5CCN(C)CC5)c4)n[nH]c3c1)C(=O)N2` (relative stereo) [Example A37, (1R*,2S*)-5′-Methoxy-2-(3-(2-(4-methylpiperazin-1-yl)pyridin-4-yl)-1H-indazol-6-yl)spiro[cyclopropane-1,3′-indolin]-2′-one], the IC50 in test [1] (read-out: PLK4 IC50 Ranges) and in test [3] (read-out: Aurora B IC50 Ranges) was less than 100 nM each time. Further, the inhibition at 1 µM in test [2] was less than 50%.

As for `CCN1CCN(c2ccc(-c3n[nH]c4cc([C@@H]5C[C@@]56C(=O)Nc5ccc(OC)cc56)ccc34)cc2)CC1` (relative stereo) [Example A98, (1R*,2S*)-2-(3-(4-(4-ethylpiperazin-1-yl)phenyl)-1H-indazol-6-yl)-5′-methoxyspiro[cyclopropane-1,3′-indolin]-2′-one 2,2,2-trifluoroacetate], the concentration for half-maximal inhibition (IC50) in test [1] and in test [3] (read-out: Aurora B IC50 Ranges) was less than 100 nM in each case. The inhibition at 1 µM in test [2] was less than 50%.

`CN1C(=O)[C@@]2(C[C@H]2c2ccc3c(/C=C/c4ccc(N5CCNCC5)cc4)n[nH]c3c2)c2ccccc21` (relative stereo) [Example A89, (1R*,2S*)-(E)-1′-methyl-2-(3-(4-(piperazin-1-yl)styryl)-1H-indazol-6-yl)spiro[cyclopropane-1,3′-indolin]-2′-one 2,2,2-trifluoroacetate]: the IC50 in test [1] and in test [3] was less than 100 nM each time. The same compound registered an inhibition at 1 µM in test [2] of more than 50%.

Regarding `CN(C)Cc1cccc(/C=C/c2n[nH]c3cc([C@@H]4C[C@@]45C(=O)N(CC(N)=O)c4ccccc45)ccc23)c1` (relative stereo) [Example A164, 2-((1R*,2S*)-(E)-2-(3-(3-((dimethylamino)methyl)styryl)-1H-indazol-6-yl)-2′-oxospiro[cyclopropane-1,3′-indoline]-1′-yl)acetamide 2,2,2-trifluoroacetate], the concentration for half-maximal inhibition (IC50) in test [1] (read-out: PLK4 IC50 Ranges) and in test [3] (read-out: Aurora B IC50 Ranges) was less than 100 nM each time. Besides, the inhibition at 1 µM in test [2] was more than 50%.

Turning to `CN1C(=O)[C@@]2(C[C@H]2c2ccc3c(/C=C/c4ccc(CN5CCCCC5)cc4)n[nH]c3c2)c2ccccc21` (relative stereo) [Example A95, (1R*,2S*)-(E)-1′-methyl-2-(3-(4-(piperidin-1-ylmethyl)styryl)-1H-indazol-6-yl)spiro[cyclopropane-1,3′-indolin]-2′-one 2,2,2-trifluoroacetate], the IC50 in test [1] (read-out: PLK4 IC50 Ranges) and in test [3] (read-out: Aurora B IC50 Ranges) was less than 100 nM each time.

For `COc1ccc2c(c1)[C@]1(C[C@H]1c1ccc3c(-c4ccc(OCCN(C)C)cc4)n[nH]c3c1)C(=O)N2` (relative stereo) [Example A103, (1R*,2S*)-2-(3-(4-(2-(dimethylamino)ethoxy)phenyl)-1H-indazol-6-yl)-5′-methoxyspiro[cyclopropane-1,3′-indolin]-2′-one 2,2,2-trifluoroacetate], the half-maximal inhibitory concentration (IC50) in test [1] (read-out: PLK4 IC50 Ranges) and in test [3] (read-out: Aurora B IC50 Ranges) was less than 100 nM in each case. The compound also came in with an inhibition at 1 µM in test [2] of less than 50%.

For orientation: IC50 means the concentration that inhibits the measured activity by half. By inhibition is commonly meant the change of the read-out against control, counted positive when it falls.
